Experimental data as given in US20260069588A1, “VEPDEGESTRANT FOR USE IN TREATING CANCER” (Arvinas Operation, Inc., priority 2022, published 2026).
Values joined by “and” are separate entries in the source; they are usually repeats but may differ in a detail not shown here. Identical values can stand only once. Like-named read-outs stand apart in the source and are kept apart here. Marks after values point to notes of the source that are not given here.

Columns and labels:
[1] = tested on: ER+/HER2− locally advanced or metastatic breast cancer; experiment: FIH Study Part A: clinical activity (CBR, ORR); type: in vivo, human
Description: Based on a 6 Jun. 2023 data cut-off, evidence of preliminary clinical activity was observed, as assessed by CBR and ORR, in the monotherapy Part A dose escalation cohort of the FIH Study.
Per protocol, the CBR evaluable analysis set included all treated patients who were enrolled at least 24 weeks prior to the data cut-off of analysis. CBR was defined as a confirmed CR or PR per RECIST v1.1 or SD with a minimum duration of 24 weeks.
Per protocol, the response-evaluable analysis set included all treated patients who had measurable disease at baseline and ORR was based on confirmed responses per RECIST v1.1.

[2] = tested on: cultured human peripheral blood lymphocytes; experiment: In vitro micronucleus assay; type: cell-based; settings: 3+21 hours ± S9; 24+24 hours −S9
Protocol: Compound A was tested in a GLP-compliant in vitro micronucleus assay.

[3] = human, in vivo
Protocol: Study Design: In the FIH Study: Part A is a Phase I monotherapy dose escalation, and Part B is a Phase 2 monotherapy expansion at 2 RP2D doses (200 mg QD, 500 mg QD).

[4] = Clinical Pharmacology Study Fed/Fasted cohort: food effect on single-dose PK; type: in vivo, human; settings: 200 mg single dose
Description: (§1) Study Design: The Clinical Pharmacology Study consists of 3 independent cohorts: 1) an open-label, randomized, 2-period, crossover Fed/Fasted cohort to determine food effects; 2) an open-label, 2-period, fixed sequence PPI cohort to evaluate interactions with esomeprazole; and 3) an open-label, randomized, 2 period, crossover rBA cohort to evaluate 2 tablet formulations.
Compound A should be taken with food.

[5] = Tissue distribution in rat; type: in vivo; settings: for Kp at 3 days: 100 mg/kg/day PO 3 days
[6] = Turnover in liver microsomes and hepatocytes; type: in vitro ADME; settings: across species
Description: No human unique metabolites were observed. Although it is not thought to be formed via enzymatic conversion, the epimer Compound B was formed to a limited extent in animals.

[7] = Clinical Pharmacology Study: single 200 mg dose PK, all 3 cohorts; settings: human, in vivo, oral
Protocol: The geometric mean T1/2 following a single 200 mg dose was approximately 40 hours under fed condition.

GR = GR (Homo sapiens, UniProt P04150); experiment: Secondary pharmacodynamics binding, GR; settings: in vitro
Sequence of GR (P04150 whole entry): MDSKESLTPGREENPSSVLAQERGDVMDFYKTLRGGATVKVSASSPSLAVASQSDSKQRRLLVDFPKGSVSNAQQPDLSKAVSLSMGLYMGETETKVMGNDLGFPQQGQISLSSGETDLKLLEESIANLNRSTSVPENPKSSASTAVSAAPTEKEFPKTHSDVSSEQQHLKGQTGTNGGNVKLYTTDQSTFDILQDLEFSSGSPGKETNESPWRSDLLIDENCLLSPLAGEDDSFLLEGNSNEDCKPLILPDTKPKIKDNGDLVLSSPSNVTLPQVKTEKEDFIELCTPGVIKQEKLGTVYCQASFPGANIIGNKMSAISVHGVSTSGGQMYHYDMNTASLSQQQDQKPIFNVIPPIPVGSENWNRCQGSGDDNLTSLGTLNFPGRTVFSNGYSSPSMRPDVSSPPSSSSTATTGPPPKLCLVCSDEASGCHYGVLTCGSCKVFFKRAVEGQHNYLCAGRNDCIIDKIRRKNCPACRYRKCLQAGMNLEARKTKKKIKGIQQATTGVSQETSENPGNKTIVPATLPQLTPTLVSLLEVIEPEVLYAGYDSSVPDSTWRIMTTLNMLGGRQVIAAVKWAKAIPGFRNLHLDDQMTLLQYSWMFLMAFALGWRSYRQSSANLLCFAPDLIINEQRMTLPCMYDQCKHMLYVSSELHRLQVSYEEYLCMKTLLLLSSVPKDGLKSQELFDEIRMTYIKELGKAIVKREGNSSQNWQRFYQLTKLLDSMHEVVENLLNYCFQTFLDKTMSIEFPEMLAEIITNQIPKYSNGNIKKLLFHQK

GSPT1 = GSPT1 (Homo sapiens, UniProt P15170); experiment: Cereblon neomorphic substrate degradation, GSPT1; type: cell-based; settings: in vitro
Sequence of GSPT1 (Q96SW2 whole entry partner, species assumed): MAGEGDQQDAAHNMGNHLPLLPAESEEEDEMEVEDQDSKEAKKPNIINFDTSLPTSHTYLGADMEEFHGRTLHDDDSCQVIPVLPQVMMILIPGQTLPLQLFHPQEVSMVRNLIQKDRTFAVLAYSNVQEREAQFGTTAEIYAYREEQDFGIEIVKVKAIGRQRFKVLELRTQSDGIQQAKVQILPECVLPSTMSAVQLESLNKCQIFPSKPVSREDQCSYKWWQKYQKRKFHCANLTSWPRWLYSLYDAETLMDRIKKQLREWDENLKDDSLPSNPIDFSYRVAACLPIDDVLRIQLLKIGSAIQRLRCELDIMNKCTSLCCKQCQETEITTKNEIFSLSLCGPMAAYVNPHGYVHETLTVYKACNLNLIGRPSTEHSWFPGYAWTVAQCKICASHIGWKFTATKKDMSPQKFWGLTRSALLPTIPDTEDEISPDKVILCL
Sequence of GSPT1 (Q16531 whole entry partner, species assumed): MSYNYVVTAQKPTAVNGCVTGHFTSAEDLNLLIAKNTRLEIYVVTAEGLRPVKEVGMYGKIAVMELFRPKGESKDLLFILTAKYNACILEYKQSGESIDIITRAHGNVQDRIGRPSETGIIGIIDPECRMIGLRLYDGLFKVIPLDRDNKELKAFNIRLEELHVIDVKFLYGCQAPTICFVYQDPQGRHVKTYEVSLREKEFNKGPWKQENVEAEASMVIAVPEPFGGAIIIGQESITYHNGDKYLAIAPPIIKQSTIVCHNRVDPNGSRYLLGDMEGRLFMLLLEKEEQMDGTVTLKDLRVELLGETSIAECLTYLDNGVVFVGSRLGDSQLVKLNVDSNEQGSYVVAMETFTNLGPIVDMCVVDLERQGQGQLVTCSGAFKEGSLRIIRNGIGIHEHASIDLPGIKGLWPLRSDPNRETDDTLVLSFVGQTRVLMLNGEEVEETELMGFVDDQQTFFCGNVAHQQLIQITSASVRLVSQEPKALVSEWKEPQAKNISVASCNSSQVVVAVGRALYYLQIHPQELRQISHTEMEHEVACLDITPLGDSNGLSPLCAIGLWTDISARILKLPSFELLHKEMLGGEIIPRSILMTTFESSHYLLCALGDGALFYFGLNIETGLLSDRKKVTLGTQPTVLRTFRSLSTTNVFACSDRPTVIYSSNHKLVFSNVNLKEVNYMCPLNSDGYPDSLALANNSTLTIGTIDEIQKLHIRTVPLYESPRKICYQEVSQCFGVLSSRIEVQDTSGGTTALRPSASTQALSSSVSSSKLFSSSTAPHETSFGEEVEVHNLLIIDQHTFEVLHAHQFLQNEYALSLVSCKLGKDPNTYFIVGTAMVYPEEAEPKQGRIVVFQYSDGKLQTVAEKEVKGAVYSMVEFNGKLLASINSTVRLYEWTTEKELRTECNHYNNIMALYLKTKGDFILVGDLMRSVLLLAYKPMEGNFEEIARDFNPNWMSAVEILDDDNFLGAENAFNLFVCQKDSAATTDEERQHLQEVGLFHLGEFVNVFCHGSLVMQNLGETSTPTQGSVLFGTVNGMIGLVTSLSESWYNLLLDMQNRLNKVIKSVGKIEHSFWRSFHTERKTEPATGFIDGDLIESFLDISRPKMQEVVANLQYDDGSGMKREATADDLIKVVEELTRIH
Sequence of GSPT1 (P15170 whole entry, species assumed): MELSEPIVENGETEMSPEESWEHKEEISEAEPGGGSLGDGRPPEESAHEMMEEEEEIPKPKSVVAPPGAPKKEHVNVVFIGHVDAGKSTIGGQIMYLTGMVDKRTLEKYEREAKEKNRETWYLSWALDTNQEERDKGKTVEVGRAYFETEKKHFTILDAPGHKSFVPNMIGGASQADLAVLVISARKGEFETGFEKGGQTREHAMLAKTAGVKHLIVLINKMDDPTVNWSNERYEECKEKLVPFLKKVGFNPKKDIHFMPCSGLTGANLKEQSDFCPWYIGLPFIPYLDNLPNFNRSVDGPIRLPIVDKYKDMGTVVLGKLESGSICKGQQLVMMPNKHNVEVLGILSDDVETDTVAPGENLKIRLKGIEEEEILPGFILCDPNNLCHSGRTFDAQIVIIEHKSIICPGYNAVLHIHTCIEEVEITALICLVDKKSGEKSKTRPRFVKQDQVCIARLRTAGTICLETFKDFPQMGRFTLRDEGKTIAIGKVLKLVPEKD
Description: (§2) These drugs bind to cereblon and promote the degradation of novel (neomorphic) substrates.

Aiolos = Aiolos (Homo sapiens, UniProt Q9UKT9); experiment: Cereblon neomorphic substrate degradation, Aiolos; type: cell-based; settings: in vitro
Sequence of Aiolos (Q96SW2 whole entry partner): as the sequence (Q96SW2 whole entry partner, species assumed) above
Sequence of Aiolos (Q16531 whole entry partner): as the sequence (Q16531 whole entry partner, species assumed) above
Sequence of Aiolos (Q9UKT9 whole entry): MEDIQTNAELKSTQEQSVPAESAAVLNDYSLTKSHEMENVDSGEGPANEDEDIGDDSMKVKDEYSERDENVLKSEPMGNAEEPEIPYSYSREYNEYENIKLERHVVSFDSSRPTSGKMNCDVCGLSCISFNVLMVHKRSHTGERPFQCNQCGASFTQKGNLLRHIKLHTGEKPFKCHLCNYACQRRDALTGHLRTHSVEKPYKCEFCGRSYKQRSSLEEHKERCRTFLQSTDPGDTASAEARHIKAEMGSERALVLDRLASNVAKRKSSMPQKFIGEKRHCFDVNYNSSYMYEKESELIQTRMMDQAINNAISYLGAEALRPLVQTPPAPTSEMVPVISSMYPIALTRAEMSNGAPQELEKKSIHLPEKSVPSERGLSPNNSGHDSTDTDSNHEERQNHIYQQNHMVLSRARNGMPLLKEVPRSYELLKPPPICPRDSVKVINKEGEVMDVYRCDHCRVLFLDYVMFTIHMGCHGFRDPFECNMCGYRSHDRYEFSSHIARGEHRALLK
Description: as §2

[8] = Biopharmaceutics Classification System; type: physicochemical; settings: low solubility/low permeability
[9] = Clinical Pharmacology Study PPI (esomeprazole) cohort: single-dose PK; type: in vivo, human; settings: 200 mg
Description: as §1

[10] = Plasma protein binding, dog; type: in vitro ADME; settings: read-out: free fraction
[11] = 7-day oral dose range finding toxicity study in dogs; type: in vivo; settings: dog, up to 120 mg/kg/day, 7 days
ER = biological target: T1, ER (Homo sapiens, UniProt P03372); experiment: Tumor ER levels in MCF7 xenograft; type: in vivo, mouse; parameters: from tissue; host or cells: MCF7/estradiol xenograft tumour in mice; settings: all doses (3, 10, 30 mg/kg), study termination
T1 sequence (P03372 1-595): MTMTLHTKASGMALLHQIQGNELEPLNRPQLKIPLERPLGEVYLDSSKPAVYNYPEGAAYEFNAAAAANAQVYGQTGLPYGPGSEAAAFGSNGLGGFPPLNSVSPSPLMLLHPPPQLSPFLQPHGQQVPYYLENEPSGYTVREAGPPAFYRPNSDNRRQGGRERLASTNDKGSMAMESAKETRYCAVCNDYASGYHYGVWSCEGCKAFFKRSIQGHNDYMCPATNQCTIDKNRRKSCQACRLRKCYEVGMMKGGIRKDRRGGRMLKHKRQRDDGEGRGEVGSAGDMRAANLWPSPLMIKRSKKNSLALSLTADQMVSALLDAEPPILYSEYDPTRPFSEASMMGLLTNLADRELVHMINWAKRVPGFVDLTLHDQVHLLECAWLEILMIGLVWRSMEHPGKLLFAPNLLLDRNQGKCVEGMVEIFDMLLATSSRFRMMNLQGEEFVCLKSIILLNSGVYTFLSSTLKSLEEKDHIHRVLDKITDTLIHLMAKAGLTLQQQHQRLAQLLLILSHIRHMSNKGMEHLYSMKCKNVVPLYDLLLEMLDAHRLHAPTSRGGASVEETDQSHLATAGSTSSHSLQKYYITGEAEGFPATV
Protocol: The 30 mg/kg dose was associated with a mean AUC0-24 of 5,717 ng·h/mL. The tumor ER levels were reduced by ≥94% at all doses compared to mice administered vehicle only (FIG. 3B).
The 30 mg/kg dose was associated with a mean AUC0-24 of 5,717 ng·h/mL.

With `O=C1CC[C@H](N2Cc3cc(N4CCN(CC5CCN(c6ccc([C@@H]7c8ccc(O)cc8CC[C@@H]7c7ccccc7)cc6)CC5)CC4)ccc3C2=O)C(=O)N1` [Compound A, (S)-3-(5-(4-((1-(4-((1R,2S)-6-hydroxy-2-phenyl-1,2,3,4-tetrahydronaphthalen-1-yl)phenyl)piperidin-4-yl)methyl)piperazin-1-yl)-1-oxoisoindolin-2-yl)piperidine-2,6-dione] the ORR ([1]; 7 of 61 response-evaluable, confirmed PR, 95% CI 4.7%, 22.2%) was 11.5%, the CBR ([1]; 30 of 83 evaluable patients, 95% CI 25.9%, 47.4%, cut-off 6 Jun 2023) was 36.1% and the CBR ([1]; Phase 1, ESR1-mutant tumors) was 50%. The CBR ([1]; Phase 1, all patients) was 40%, the frequency of micronuclei [2] was “did not induce biologically relevant increases” and the CL/F ([3]; 30 mg) was 7.4 L/h. The “Rac (AUCtau)” value ([3]; 30 mg) was 2.6, the CL/F ([3]; 60 mg) was 8.2 L/h and the “Rac (AUCtau)” value ([3]; 60 mg) was 2.6. The Tmax ([3]; 60 mg) was 4.2 h, the CL/F ([3]; 100 mg) was 11.2 L/h and the “Rac (AUCtau)” value ([3]; 100 mg) was 2.1. The CL/F ([3]; 120 mg) was 8.8 L/h, the Cmax ([3]; 120 mg) was 799 ng/mL and the “Rac (AUCtau)” value ([3]; 120 mg) was 2.2. The CL/F ([3]; 180 mg) was 9.4 L/h, the Cmax ([3]; 180 mg) was 1062 ng/mL and the “Rac (AUCtau)” value ([3]; 180 mg) was 2.3. The Tmax ([3]; 180 mg) was 5.0 h, the AUCtau ([3]; 200 mg) was 15459 ng·h/mL and the CL/F ([3]; 200 mg) was 12.9 L/h. For the same molecule, the Cmax ([3]; 200 mg) was 866 ng/mL, the “Rac (AUCtau)” value ([3]; 200 mg) was 1.9 and the Tmax ([3]; 200 mg) was 5.0 h. For the same molecule, the CL/F ([3]; 250 mg) was 12.2 L/h, the CL/F ([3]; 360 mg) was 13.9 L/h and the “Rac (AUCtau)” value ([3]; 360 mg) was 2.2. For the same molecule, the CL/F ([3]; 500 mg) was 14.5 L/h, the Cmax ([3]; 500 mg) was 1883 ng/mL and the “Rac (AUCtau)” value ([3]; 500 mg) was 2.2. For the same molecule, the AUCtau ([3]; 700 mg) was 26572 ^e ng·h/mL, the Cmax ([3]; 700 mg) was 1530 ^e ng/mL and the “Rac (AUCtau)” value ([3]; 700 mg) was 1, 4 ^g. For the same molecule, the Tmax ([3]; 700 mg) was 6.0 g·h, the “increase of AUCinf by high-fat meal” value [4] was 125% and the “increase of AUCinf by high-fat meal vs fasted” value [4] was 2.2 fold and 2 fold. For the same molecule, the “increase of Cmax by high-fat meal” value [4] was 184%, the “increase of Cmax by high-fat meal vs fasted” value [4] was 2.8 fold and 3 fold and the “tissue accumulation upon repeat-dose” value [5] was “no signs of tissue accumulation”. The Kp at 3 days ([5]; brain, read-out: tissue plasma ratio, brain) was at most 0.1, the “blood brain barrier crossing” value ([5]; in vivo) was “does not readily cross the blood brain barrier” and the Kp at 3 days ([5]; lung, read-out: tissue plasma ratio, lung) was 5.6 to 13.9. The “turnover in liver microsomes and hepatocytes” value [6] was “relatively low turnover”, the half-life ([7]; fed, read-out: geometric mean T1/2 (converted)) was about 40 h and the Tmax ([7]; read-out: median Tmax across cohorts) was 6 to 8 h. The binding (GR) was “bound”, the “degradation of GSPT1” value (GSPT1) was “did not degrade” and the “degradation of Aiolos” value (Aiolos) was “did not degrade”. The “Biopharmaceutics Classification System class” value [8] was “Class IV”, the “AUC with PPI vs without PPI” value [9] was “similar” and the “decrease of median Cmax by PPI” value [9] was “about 18%”. For the same molecule, the “decrease of AUCinf by multiple doses of esomeprazole 40 mg” value ([9]; moderate-fat meal) was 11%, the “decrease of Cmax by multiple doses of esomeprazole 40 mg” value ([9]; moderate-fat meal) was 17.1% and the fraction unbound at 1 μM [10] was 0.026. For the same molecule, the tolerability [11] was “well tolerated” and the “tumor ER levels reduced vs vehicle” value (ER) was at least 94%.
